The text below walks through data of US20040048860A1, “Use of selective noradrenaline reuptake inhibitors for the treatment of tension-type headache” (priority 2000, published 2004).

Molecules are shown by their SMILES. “Also recorded” adds a separate entry of the source. Where two headings read alike, the source gives them in different places.

For series [1], the system named is chronic tension-type headache. As to conditions: prophylactic; cited from earlier work.
For series [2], the system named is chronic tension-type headache. The series can be described thus: Prophylactic treatment with reboxetine in patients with chronic tension-type headache (headache diary). In kind it is in vivo, human. The text has this: Prophylactic treatment with reboxetine has been given to 10 patients with chronic tension-type headache treated at the outpatient headache clinic at the Department of Neurology, Glostrup Hospital, University of Copenhagen, Denmark. There were 5 women and 5 men with a mean age of 44 years. All patients had been suffering from chronic tension-type headache for several years, and had been treatment resistant to other headache prophylactics. Before treatment, the patents underwent a general and a neurological examination and completed a diagnostic headache diary during a four-week run-in period.
The patients filled in a headache diary before and during treatment recording headache characteristics, accompanying symptoms and intake of analgesics.
In total, 10 patents have been treated with reboxetne (as the methanesulphonate salt). […] The patents were instructed to take the tablet two to three hours before bedtime. Four patients stopped treatment within the first 4 weeks due to side effects. […] Efficacy was estimated to be very good in 66% of the patients that fulfilled the treatment series.

The mark [3] stands for this setting: patients with chronic tension-type headache, 4 mg to 8 mg once daily, headache diary.

On to `CN(C)CCC=C1c2ccccc2CCc2ccccc21` [Amitriptyline], for which, in series [1], the reduces headache is recorded as 30%; the side effects result is “many side effects, such as sedation and dryness of mouth”.
`CCOc1ccccc1OC(c1ccccc1)C1CNCCO1` (stereo not drawn) [reboxetne, 2-[α-(2-ethoxy)-phenoxy-benzyl]morpholine]: in series [2] (6 patients that completed the treatment series), the “Efficacy estimated to be very good, share of the patients that fulfilled the treatment series” value is listed as 66%. Also, the side effects entry in series [2] (10 patients treated, 4 mg to 8 mg once daily) was “Sleeping problems and dizziness were the most common side effect; also recorded: No serious side effects were reported”. Also, in series [2] (setting [3]), the “reduction in consumption of analgesics” value is listed as 55%, the reduction in intensity is on record as 78% and the “reduction of AUC (intensity×duration)” value is 47%. Besides, the Headache frequency reduced in series [2] (patients with chronic tension-type headache, initial dose 4 mg once daily, final dose 8 mg once daily, headache diary before vs during treatment) was 10%. The “patients that stopped treatment due to side effects” value in series [2] (within the first 4 weeks, 10 patients treated) was “Four”.
